Values joined by “and” are separate entries in the source; they are usually repeats but may differ in a detail not shown here. Equal values may be shown once.
Columns and labels:
[1] = pKa of unformulated amine lipid by TNS fluorescence; type: physicochemical; conditions: sodium phosphate buffer; Table 2; unformulated amine lipid, TNS; read-out: Lipid pKa
Protocol: The pKa of each amine lipid was determined according to the method in Jayaraman, et al. (Angew Chem Int Ed Engl 51(34), 2012, 8529-8533) with the following adaptations. The pKa was determined for unformulated amine lipid in ethanol. Lipid stock solutions (2.94 mM) were diluted into Sodium Phosphate Buffers (0.1 M, Boston Bioproducts) of different pH (pH-range: 4.5-9.0) yielding a final lipid concentration of approx. 100 μM. The test samples were supplemented with TNS {6-(p-Toluidino)-2-naphthalenesulfonic acid sodium salt}, incubated and the fluorescence intensity was measured using excitation and emission wavelengths of 321 nm and 448 nm, respectively. The recorded data were normalized and the respective pKa values were derived from sigmoidal fitting.

[2] = LNP average particle size and polydispersity by dynamic light scattering; type: physicochemical; conditions: Table 3, Experiments 1-13; LNP 50% ionizable lipid, 38% cholesterol, 9% DSPC, 3% PEG2K-DMG; sgRNA:mRNA 1:2
Protocol: Dynamic Light Scattering (“DLS”) is used to characterize the polydispersity index (“pdi” or “PDI”) and size of the LNPs of the present disclosure. DLS measures the scattering of light that results from subjecting a sample to a light source. PDI, as determined from DLS measurements, represents the distribution of particle size (around the mean particle size) in a population, with a perfectly uniform population having a PDI of zero.
LNP compositions are analyzed for average particle size, polydispersity index (pdi), total RNA content, encapsulation efficiency of RNA, and zeta potential. LNP compositions may be further characterized by lipid analysis, AF4-MALS, NTA, and/or cryo-EM.
Average particle size and polydispersity are measured by dynamic light scattering (DLS) using a Malvern Zetasizer DLS instrument. LNP samples were diluted with PBS buffer prior to being measured by DLS. Z-average diameter (“Z-avg”) which is an intensity-based measurement of average particle size was reported along with number average diameter (“number mean”) and PDI. A Malvern Zetasizer instrument is also used to measure the zeta potential of the LNP. Samples are diluted 1:17 (50 μL into 800 μL) in 0.1×PBS, pH 7.4 prior to measurement.
In vivo editing efficiency for materials delivered with formulations including various amine lipid (or ionizable lipid) compounds in Experiments 1 through 14 as described in Tables 3 and 4 was assessed. Editing was measured using G000534 (SEQ ID NO: 5) which targets the rat TTR gene. Lipids described above were assessed for efficacy through in vivo editing experiments. LNPs were formulated at a 1:2 w/w ratio of sgRNA (SEQ ID NO: 5) and Cas9 mRNA (SEQ ID NO: 3). In Experiments 1 through 13, lipid components of the LNP are formulated in a molar ratio of 50% ionizable lipid, 38% cholesterol, 9% DSPC, and 3% PEG2K-DMG. In Experiment 14, lipid components of the LNP are formulated in a molar ratio of 50% ionizable lipid, 38% cholesterol, 9% DSPC, and 3% C13 Ether. The final LNPs used in different in vivo editing experiments were characterized to determine the encapsulation efficiency (% E), polydispersity index (PDI), and average particle size (Z-avg and number mean) according to the analytical methods provided above. The pKa values of each of the following ionizable lipids were also measured to be in the range of about 5.8 to about 7.6.
In vivo editing efficiency for materials delivered with formulations including various combinations of amine lipid (or ionizable lipid) and PEG lipid compounds was assessed as described in Tables 5 and 6. Editing was measured using G000534 (SEQ ID NO: 5) which targets the rat TTR gene. Lipids described above were assessed for efficacy through in vivo editing experiments. LNPs were formulated at a 1:2 w/w ratio of sgRNA (SEQ ID NO: 5) and Cas9 mRNA (SEQ ID NO:3). Lipid components of the LNP are formulated in a molar ratio of 50% ionizable lipid, 38% cholesterol, 9% DSPC, and 3% of various PEG lipids (e.g., PEG2K-DMG, C13 Ether, C14 Ether). The final LNPs used in different in vivo editing experiments were characterized to determine the encapsulation efficiency (% E), polydispersity index (PDI), and average particle size (Z-avg and number mean) according to the analytical methods provided above. The pKa values of each of the following ionizable lipids were also measured to be in the range of about 5.8 to about 7.6.
In vivo editing efficiency for materials delivered with formulations including various amine lipid (or ionizable lipid) compounds as described in Tables 7 and 8 was assessed. Editing was measured using G000534 (SEQ ID NO: 5) which targets the rat TTR gene. Lipids described above were assessed for efficacy through in vivo editing experiments. LNPs were formulated at a 1:2 w/w ratio of sgRNA (SEQ ID NO: 5) and Cas9 mRNA (SEQ ID NO: 3). Lipid components of the LNP were formulated in a molar ratio of 50% ionizable lipid, 38% cholesterol, 9% DSPC, and 3% C13 Ether. […]

Row | SMILES | pKa [1] | Number mean [2] | PDI [2] | Z-avg [2]
1 | CCCCC/C=C\C/C=C\CCCCCCCC(=O)OCC(CCCCCCCCC(=O)OC(CCCCCCCC)CCCCCCCC)COC(=O)OCCCN(CC)CC (stereo not drawn) [Compound 9, 2-((((3-(diethylamino)propoxy)carbonyl)oxy)methyl)-11-(heptadecan-9-yloxy)-11-oxoundecyl (9Z,12Z)-octadeca-9,12-dienoate] | 5.87 | 61 nm and 65 nm and 62 nm | 0.03 | 68 nm and 73 nm
2 | CCCCC/C=C\C/C=C\CCCCCCCC(=O)OCC(CCCCCCCCC(=O)OC(CCCCCCCC)CCCCCCCC)COC(=O)NCCN(CC)CC (stereo not drawn) [Compound 10, 2-((((2-(diethylamino)ethyl)carbamoyl)oxy)methyl)-11-(heptadecan-9-yloxy)-11-oxoundecyl (9Z,12Z)-octadeca-9,12-dienoate] | 6.37 | 83 nm | 0.04 | 90 nm
3 | CCCCC/C=C\C/C=C\CCCCCCCC(=O)OCC(CCCCCCCCC(=O)OC(CCCCCCCC)CCCCCCCC)COC(=O)OCCCN(C)CC (stereo not drawn) [Compound 11, 2-((((3-(ethyl(methyl)amino)propoxy)carbonyl)oxy)methyl)-11-(heptadecan-9-yloxy)-11-oxoundecyl (9Z,12Z)-octadeca-9,12-dienoate] | 6.13 | 70 nm | 0.02 | 78 nm
4 | CCCCC/C=C\C/C=C\CCCCCCCC(=O)OCC(CCCCC(=O)OC(CCCC)CCCC)COC(=O)NCCN(CC)CC (stereo not drawn) [Compound 12, 2-((((2-(diethylamino)ethyl)carbamoyl)oxy)methyl)-7-(nonan-5-yloxy)-7-oxoheptyl (9Z,12Z)-octadeca-9,12-dienoate] | 6.82 | 101 nm | 0.03 | 108 nm
5 | CCCCC/C=C\C/C=C\CCCCCCCC(=O)OCC(CCCCC(=O)OC(CCCC)CCCC)COC(=O)OCCCN(C)CC (stereo not drawn) [Compound 13, 2-((((3-(ethyl(methyl)amino)propoxy)carbonyl)oxy)methyl)-7-(nonan-5-yloxy)-7-oxoheptyl (9Z,12Z)-octadeca-9,12-dienoate] | 6.64 | 87 nm | 0.04 | 99 nm
6 | CCCCC/C=C\C/C=C\CCCCCCCC(=O)OCC(CCCCC(=O)OC(CCCC)CCCC)COC(=O)OCCCN(CC)CC (stereo not drawn) [Compound 14, 2-((((3-(diethylamino)propoxy)carbonyl)oxy)methyl)-7-(nonan-5-yloxy)-7-oxoheptyl (9Z,12Z)-octadeca-9,12-dienoate] | 6.27 | 107 nm | 0.01 | 114 nm
7 | CCCCC/C=C\C/C=C\CCCCCCCC(=O)OCC(CCCCC(=O)OC(CCCCCCCC)CCCCCCCC)COC(=O)OCCCN(CC)CC (stereo not drawn) [Compound 15, 2-((((3-(diethylamino)propoxy)carbonyl)oxy)methyl)-7-(heptadecan-9-yloxy)-7-oxoheptyl (9Z,12Z)-octadeca-9,12-dienoate] | 6.11 | 58 nm | 0.06 | 66 nm
8 | CCCCC/C=C\C/C=C\CCCCCCCC(=O)OCC(CCCCCCC(=O)OC(CCCCCCCC)CCCCCCCC)COC(=O)OCCCN(CC)CC (stereo not drawn) [Compound 16, 2-((((3-(diethylamino)propoxy)carbonyl)oxy)methyl)-9-(heptadecan-9-yloxy)-9-oxononyl (9Z,12Z)-octadeca-9,12-dienoate] | 5.98 | 62 nm | 0.03 | 68 nm
9 | CCCCC/C=C\C/C=C\CCCCCCCC(=O)OCC(CCCCC(=O)OC(CCCCCC)CCCCCC)COC(=O)OCCCN(CC)CC (stereo not drawn) [Compound 17, 2-((((3-(diethylamino)propoxy)carbonyl)oxy)methyl)-7-oxo-7-(tridecan-7-yloxy)heptyl (9Z,12Z)-octadeca-9,12-dienoate] | 6.13 | 67 nm | 0.03 | 74 nm
10 | CCCCC/C=C\C/C=C\CCCCCCCC(=O)OCC(CCCCCCC(=O)OC(CCCCCC)CCCCCC)COC(=O)OCCCN(CC)CC (stereo not drawn) [Compound 18, 2-((((3-(diethylamino)propoxy)carbonyl)oxy)methyl)-9-oxo-9-(tridecan-7-yloxy)nonyl (9Z,12Z)-octadeca-9,12-dienoate] | 6.08 | 69 nm | 0.01 | 75 nm
11 | CCCCC/C=C\C/C=C\CCCCCCCC(=O)OCC(CCCCCCCCC(=O)OC(CCCCCC)CCCCCC)COC(=O)OCCCN(CC)CC (stereo not drawn) [Compound 19, 2-((((3-(diethylamino)propoxy)carbonyl)oxy)methyl)-11-oxo-11-(tridecan-7-yloxy)undecyl (9Z,12Z)-octadeca-9,12-dienoate] | 6.09 | 66 nm | 0.02 | 71 nm
12 | CCCCC/C=C\C/C=C\CCCCCCCC(=O)OCC(CCCCCCC(=O)OC(CCCC)CCCC)COC(=O)OCCCN(CC)CC (stereo not drawn) [Compound 20, 2-((((3-(diethylamino)propoxy)carbonyl)oxy)methyl)-9-(nonan-5-yloxy)-9-oxononyl (9Z,12Z)-octadeca-9,12-dienoate] | 6.19 | 68 nm | 0.05 | 84 nm
13 | CCCCCCCCOC(CCC(=O)OCC(COC(=O)CCC(OCCCCCCCC)OCCCCCCCC)COC(=O)NCCN(CC)CC)OCCCCCCCC [Compound 22, 2-((((2-(diethylamino)ethyl)carbamoyl)oxy)methyl)propane-1,3-diyl bis(4,4-bis(octyloxy)butanoate)] | 6.66 | 77 nm | 0 | 82 nm
14 | CCCCC/C=C\C/C=C\CCCCCCCCC(COC(=O)CCCCCC(=O)OC(CCCCCCCC)CCCCCCCC)COC(=O)NCCN(CC)CC (stereo not drawn) [Compound 23, 1-((11Z,14Z)-2-((((2-(diethylamino)ethyl)carbamoyl)oxy)methyl)icosa-11,14-dien-1-yl) 7-(heptadecan-9-yl) heptanedioate] | 6.49 | 86 nm and 74 nm | 0.02 | 90 nm and 81 nm
15 | CCCCC/C=C\C/C=C\CCCCCCCC(=O)OCC(CCCCCCCCC(=O)OC(CCCCCCCC)CCCCCCCCC)COC(=O)CCC(CCCCCCCC)OC(=O)NCCN(C)CC (stereo not drawn) [Compound 24, 3-methyl-15-(9-(octadecan-9-yloxy)-9-oxononyl)-9-octyl-7,12-dioxo-8,13-dioxa-3,6-diazahexadecan-16-yl (9Z,12Z)-octadeca-9,12-dienoate] | 6.1 | 60 nm | 0.03 | 67 nm

— patent US20260337153A1, “IONIZABLE AMINE LIPIDS” (Intellia Therapeutics, Inc., priority 2023, published 2026)
